{"source": "patent US11179348B2", "about": "“Combination comprising pterostilbene for the treatment of cancer” (FUNDACIÓN UNIVERSIDAD CATÓLICA DE VALENCIA SAN VICENTE …, priority 2015, dated 2021)", "key": {"[1]": {"tested_on": "ACTH", "assay": "Plasma ACTH levels (ELISA) in tumor-bearing mice", "assay_type": "in vivo", "text": "Measurement of ACTH, Corticosterone, and NORA Levels.\nPlasma levels of ACTH (Calbiotech, Inc., Spring Valley, Calif.), corticosterone (Kamiyama Biomedical Co., Seattle, Wash.), and NORA (IBL, Hamburg, Germany) were quantified by ELISA according to the instructions of the suppliers."}, "[2]": {"tested_on": "HepG2 hepatocellular carcinoma", "assay": "In vivo growth of HepG2 liver cancer xenografts", "set-up": "species or system human", "details": "HepG2, day 35"}, "[3]": {"tested_on": "MelJuso melanoma", "assay": "In vivo growth of MelJuso melanoma xenografts in nu/nu mice", "set-up": "species or system human"}, "[4]": {"tested_on": "human melanoma", "assay": "Effect of pterostilbene on human melanoma in vivo (growth, Ki-67, TUNEL, nuclear Nrf2)", "procedure": "Animals, Tumor Growth, and In Vivo Administration of Pter.\nFemale nu/nu nude mice (6-8 weeks; Charles Rivers Laboratories, Wilmington, Mass.) were fed ad libitum on a standard diet (Harlan Teklad Animal Diets & Bedding, Madison, Wis.). Mice were kept on a 12-h-light/12-h-dark cycle with the room temperature at 22° C. […] For cancer xenograft experiments, mice were inoculated s.c. with 10×10^6 cancer cells per mouse. Tumor volume was calculated based on two dimensions, measured using calipers, and was expressed in mm^3 according to V=0.5a×b^2, where a and b are the long and the short diameters of the tumor, respectively. For histological analysis xenograft samples were first fixed in 4% formaldehyde, paraffin embedded, and stained as indicated below. Mice were monitored after inoculation, and tumor measurements were taken every 2 days. For pharmacokinetic and treatment studies Pterostilbene (Green Molecular S. L., Paterna, Spain) [dissolved in DMSO:ethanol (2:1), 50 mg Pter/ml] was administered i.v. through the jugular vein (where, previously, a permanent catheter was surgically fixed). Administration was slowly performed during 1-2 min.\nMonoclonal mouse anti-human HMB45 antibodies (Abcam, Cambridge, UK) were used for immunohistochemical detection of melanoma cells. For that purpose, the tumors were fixed and paraffin embedded as described above. Immunohistochemical analysis was applied to tissue slices (5 μm thick) following the standard methodology recommended by Abcam. A horseradish peroxidase-conjugated goat anti-mouse polyclonal (Abcam) was used as secondary antibody.\nMonoclonal mouse anti-human Ki-67 (Dako, Sant Cugat del Vallés, Spain) were used for immunohistochemical detection of the tumor growing fraction. Immunohistochemical analysis was applied to tissue slices (5 μm thick) following the standard methodology recommended by Dako. A biotin-conjugated goat anti-rabbit polyclonal (Dako) was used as secondary antibody.\nDNA strand breaks in apoptotic cells were assayed by using a direct TUNEL labeling assay (Boehringer, Mannheim, Germany) and fluorescence microscopy following manufacturer's methodology.\nNrf2 Gene Transfer and Measurement.\nThe Tet-Off Advanced Inducible Gene Expression System (Clontech, Palo Alto, Calif.) was used to insert the human Nrf2 gene and for transfection into melanoma cells following manufacturer's instructions. Tet-off cells stably expressed Tet-regulated pTRE-Tight-Nrf2 giving up to an increased Nrf2 gene expression (Tet-Nrf2 cells). To suppress Nrf2 protein levels Tet-Nrf2 cells were cultured in the presence of 2 mg tetracycline (Sigma)/10^6 cells. The NE-PER extraction kit from Thermo Scientific (Rockford, Ill.) was used for nuclear protein extraction according to the manufacturer's instructions. The protein content was determined by the Pierce BCA protein assay. The antibodies (mouse monoclonal primary antibodies) against Nrf2 were purchased from Abcam. A total of 50 mg of protein was boiled in Laemmli buffer and resolved by 12.0% SDS-PAGE. Proteins were transferred to a nitrocellulose membrane (Hybond C-extra, GE Healthcare Europe GmbH, Barcelona, Spain) and subjected to Western blotting. The blotted membrane was blocked for 1 h at room temperature in Tris-buffered saline (TBS) containing 5% (w/v) membrane-blocking reagent (non-fat dried milk). All antibody incubations were carried out at room temperature in TBS containing 1% membrane-blocking reagent. […] Protein bands were quantified using laser densitometry."}, "[5]": {"tested_on": "HepG2 cells", "assay": "GSH levels and glutathione- and oxidative stress-related enzyme activities in HepG2 cells growing in vivo", "set-up": "species or system human", "details": "HepG2, in vivo Pter, day 35", "protocol": "(§1) To measure enzyme activity, isolated tumor cells were homogenized in 0.1 M phosphate buffer (pH 7.2) at 4° C. GCL and GSS activities were measured as described previously (Obrador, E. et al. Hepatology 35, 74-81 (2002)). GPX (selenium dependent) activity was measured as described by Flohé and Gunzler (Flohe, L. & Gunzler, W. A. Methods Enzymol 105, 114-121 (1984)) using H2O2 as a substrate. GSR activity was determined as described by Akerboom and Sies (Akerboom, T. P. et al, Bull Eur Physiopathol Respir 17 Suppl, 221-227 (1981)). GGT activity was measured as described previously (Obrador, E. et al. Hepatology 35, 74-81 (2002)). GST activity was measured using an assay kit from Sigma. TXNRD activity, defined by the concentration of sodium-lipoate (disulfide) reduced to dehydrolipoate (dithiol) per milligram protein, was measured as previously described (Javvadi, P. et al. Cancer Res 70, 1941-1950 (2010)). SOD activity was measured as described by Flohé and Otting (Flohe, L. & Otting, F. Methods Enzymol 105, 93-104 (1984).) using 2 mM cyanide in the assay medium to distinguish mangano-type enzyme (SOD2) from the cuprozinc type (SOD1). CAT activity was analyzed as described by Aebi (Aebi, H. Methods Enzymol 105, 121-126 (1984)). NOX activity was measured by chemiluminescence following the methodology of Wind et al. (Wind, S. et al. Comparative pharmacology of chemically distinct NADPH oxidase inhibitors. Br J Pharmacol 161, 885-898 (2010)). Protein concentration was determined with the Pierce BCA protein assay (Fisher Scientific, Waltham, Mass.).\n(§2) GSH, GSSG, NADP^+ and NADPH Determination.\n(§3) GSH and GSSG were determined, following procedures previously described (Obrador, E. et al. PLoS One 9, e96466 (2014)), by LC/MS using the same equipment described above for pterostilbene determination. Cell processing was performed according to published methodology, where rapid N-ethylmaleimide derivatization was used to prevent GSH auto-oxidation (Asensi, M. et al. Anal Biochem 217, 323-328 (1994)). NADP^+ and NADPH were quantitated using an assay kit from Sigma (St. Louis, Mo.).\n(§4) Isolation of Tumor Cells from Mouse Xenografts Using Enzymatic Digestion and a double Ficoll gradient.\n(§5) To maximize the amount of isolated cells, avoiding the use of RFP-transfected cells and subsequent laser microdissection, an alternative methodology was set up. To maximize cell yield and viability the following combination of enzymes was used: collagenase III (200 U/ml; Sigma-Aldrich), DNase I (200 U/ml; Sigma-Aldrich) and trypsin (5 mg/ml; Invitrogen), and a non-enzymatic dissociation buffer (NEDB, Invitrogen). Briefly, mice were killed, and tumors were removed (avoiding skin, muscle and fat) into cold culture media and processed immediately. The tumors were minced into 1-3 mm fragments, which were then incubated with the dissociation solution (see above) for 30 min at 37° C. The tumor fragments were mixed up and down every 10 min using a […] micropipette with a tip cut to a diameter adapted to tissue fragment size. After each incubation period, the fragments were filtered through a […] nylon mesh cell strainer (BD Biosciences, San Diego, Calif., USA). The released cells were centrifuged at 1200 r.p.m. for 2 min and stored in cold CO2-independent medium with 30% FCS at […]. Fresh dissociation solution was added to the remaining tissue fragments for 30 min. Dissociation was stopped when no additional cells were released. The fragments were pushed through a sieve and all cells from all incubation periods were pooled and counted.\n(§6) The dissociated cells were layered onto a double Ficoll gradient (Histopaque; Sigma-Aldrich; densities 1.077 and 1.119) and spun at 700 g for 30 min at room temperature. Cells removed from both interfaces were pooled and washed two times in CO2-independent medium and stored at 4° C. Debris and red blood cell elimination was improved with the dual-density gradient. […]"}, "[6]": {"tested_on": "MDA-MB-231 breast adenocarcinoma", "assay": "In vivo growth of MDA-MB-231 breast cancer xenografts", "set-up": "species or system human", "details": "MDA-MB-231, day 35"}, "[7]": {"tested_on": "MDA-MB-231 cells", "assay": "GSH levels and glutathione- and oxidative stress-related enzyme activities in MDA-MB-231 cells growing in vivo", "set-up": "species or system human", "details": "MDA-MB-231, in vivo Pter, day 35", "protocol": "as §1, §2, §3, §4, §5, §6"}, "[8]": {"details": "tumors of Pter-treated melanoma-bearing mice"}}, "note": "Marks after values point to notes of the source that are not given here.", "data": [{"smiles": "COc1cc(/C=C/c2ccc(O)cc2)cc(OC)c1", "note": "[Pter, trans-3,5-dimethoxy-4′-hydroxystilbene]", "values": [{"measurement": "ACTH", "setting": "[1]; A549-bearing mice, day 35, 6 h circadian time", "result": "79 ± 19", "unit": "pg/mL plasma"}, {"measurement": "ACTH", "setting": "[1]; AsPC-1-bearing mice, day 28, 6 h circadian time", "result": "112 ± 31", "unit": "pg/mL plasma"}, {"measurement": "ACTH", "setting": "[1]; BxPC-3-bearing mice, day 35, 6 h circadian time", "result": "68 ± 11", "unit": "pg/mL plasma"}, {"measurement": "ACTH", "setting": "[1]; Caco-2-bearing mice, day 28, 6 h circadian time", "result": "35 ± 15", "unit": "pg/mL plasma"}, {"measurement": "ACTH", "setting": "[1]; HT-29-bearing mice, day 21, 6 h circadian time", "result": "44 ± 16", "unit": "pg/mL plasma"}, {"measurement": "ACTH", "setting": "[1]; HepG2-bearing mice, day 35, 6 h circadian time", "result": "116 ± 25", "unit": "pg/mL plasma"}, {"measurement": "ACTH", "setting": "[1]; LNCaP-bearing mice, day 49, 6 h circadian time", "result": "49 ± 15", "unit": "pg/mL plasma"}, {"measurement": "ACTH", "setting": "[1]; MCF-7-bearing mice, day 28, 6 h circadian time", "result": "44 ± 9", "unit": "pg/mL plasma"}, {"measurement": "ACTH", "setting": "[1]; MDA-MB-231-bearing mice, day 35, 6 h circadian time", "result": "65 ± 17", "unit": "pg/mL plasma"}, {"measurement": "ACTH", "setting": "[1]; PC-3-bearing mice, day 21, 6 h circadian time", "result": "102 ± 30", "unit": "pg/mL plasma"}, {"measurement": "ACTH", "setting": "[1]; SK-OV-3-bearing mice, day 49, 6 h circadian time", "result": "63 ± 19", "unit": "pg/mL plasma"}, {"measurement": "ACTH levels in plasma", "setting": "[1]; melanoma-bearing mice, pterostilbene treatment (FIG. 2B)", "result": "decreased"}, {"measurement": "Tumor vol.", "setting": "[2]", "result": "375 ± 106* mm^3"}, {"measurement": "inhibition of tumor growth", "setting": "[3]; MelJuso, day 42, 30 mg Pter/kg i.v. every 48 h, vs controls", "result": "~49", "unit": "%"}, {"measurement": "Tumor vol.", "setting": "[3]; MelJuso-RFP, 35 days after inoculation, Pter 30 mg/kg i.v. every 48 h and/or CRC infusion 0.3 μg/h", "result": "145 ± 35* mm^3"}, {"measurement": "melanoma growth inhibition at lower dose", "setting": "[4]; 20 mg/kg vs 30 mg/kg", "result": "less effective"}, {"measurement": "melanoma growth inhibition at higher dose", "setting": "[4]; 40 mg/kg vs 30 mg/kg", "result": "no further inhibition"}, {"measurement": "nuclear Nrf2 in melanoma cells", "setting": "[4]; in vivo Pter-treated vs control melanoma-bearing mice (FIG. 4C)", "result": "decreased"}, {"measurement": "apoptotic cell death in tumors (TUNEL)", "setting": "[4]; [8]", "result": "increase"}, {"measurement": "melanoma cell proliferation in tumors (Ki-67 staining)", "setting": "[4]; [8]", "result": "decrease"}, {"measurement": "CAT", "setting": "[5]", "result": "1.1 ± 0.3", "unit": "mU/10^6 cells"}, {"measurement": "GCL", "setting": "[5]", "result": "50 ± 15", "unit": "mU/10^6 cells"}, {"measurement": "GSH", "setting": "[5]", "result": "8.5 ± 2.6", "unit": "nmol/10^6 cells"}, {"measurement": "GSS", "setting": "[5]", "result": "4.8 ± 0.9", "unit": "mU/10^6 cells"}, {"measurement": "GSSG", "setting": "[5]", "result": "0.3 ± 0.1", "unit": "nmol/10^6 cells"}, {"measurement": "SOD1", "setting": "[5]", "result": "0.1 ± 0.02", "unit": "U/10^6 cells"}, {"measurement": "SOD2", "setting": "[5]", "result": "0.02 ± 0.01", "unit": "U/10^6 cells"}, {"measurement": "Tumor vol.", "setting": "[6]", "result": "266 ± 89* mm^3"}, {"measurement": "CAT", "setting": "[7]", "result": "0.6 ± 0.2", "unit": "mU/10^6 cells"}, {"measurement": "GCL", "setting": "[7]", "result": "66 ± 18", "unit": "mU/10^6 cells"}, {"measurement": "GSH", "setting": "[7]", "result": "11.5 ± 2.0", "unit": "nmol/10^6 cells"}, {"measurement": "GSS", "setting": "[7]", "result": "7.7 ± 1.2", "unit": "mU/10^6 cells"}, {"measurement": "GSSG", "setting": "[7]", "result": "0.2 ± 0.05", "unit": "nmol/10^6 cells"}, {"measurement": "SOD1", "setting": "[7]", "result": "0.3 ± 0.08", "unit": "U/10^6 cells"}, {"measurement": "SOD2", "setting": "[7]", "result": "0.03 ± 0.01", "unit": "U/10^6 cells"}]}]}
